Source: ChEMBL document CHEMBL1201862, “PubChem BioAssay data set” (2004)
Values belong to the molecule of their own block, whether it stands above or below them. The source made the active and inactive calls.

Legend:
[1] = target: T1, Calpain-2 catalytic subunit (Sus scrofa, UniProt P43367); assay: m-calpain protease blockers, concentration series – biochemical, fluorogenic peptide substrate, dose response (AID 1420); type: functional
T1 sequence (P43367 whole entry): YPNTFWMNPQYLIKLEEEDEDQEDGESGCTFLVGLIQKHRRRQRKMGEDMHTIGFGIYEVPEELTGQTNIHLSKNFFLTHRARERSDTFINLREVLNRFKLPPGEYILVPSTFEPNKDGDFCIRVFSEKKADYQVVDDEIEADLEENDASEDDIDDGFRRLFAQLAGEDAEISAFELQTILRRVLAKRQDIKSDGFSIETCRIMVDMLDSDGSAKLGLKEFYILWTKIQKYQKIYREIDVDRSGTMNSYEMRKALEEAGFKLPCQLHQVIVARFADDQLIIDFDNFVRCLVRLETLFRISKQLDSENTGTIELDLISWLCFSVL

[2] = target: Peroxisome proliferator-activated receptor gamma/Nuclear receptor coactivator 1 (Homo sapiens, UniProt P37231); type: functional;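 also: agonist potency as compounds enhance coactivator SRC-1 recruitment to PPARgamma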
[3] = target: Peroxisome proliferator-activated receptor gamma/Nuclear receptor coactivator 3 (Homo sapiens, UniProt P37231); type: functional;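 also: agonist potency for raising coactivator recruitment to the receptor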
[4] = target: Peroxisome proliferator-activated receptor gamma/Nuclear receptor coactivator 2 (Homo sapiens, UniProt P37231); type: functional;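 also: agonist potency for raising coactivator recruitment to the receptor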
[5] = target: Eukaryotic translation initiation factor 4E (Mus musculus, UniProt P63073); assay: blockers of eIF4G binding by eIF4E – biochemical, TR-FRET, dose response (AID 855); type: functional;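 also: potency for disrupting eIF4E binding to eIF4GI seen as loss of FRET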
[6] = target: T2, Intestinal-type alkaline phosphatase (Homo sapiens, UniProt P09923); assay: activation of human intestinal alkaline phosphatase – biochemical, luminescent, uHTS hits, set 2, dose response (AID 488817); type: functional;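 also: potency of activators that raise enzyme activity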
[7] = target: Intestinal-type alkaline phosphatase (Mus musculus, UniProt P24822); assay: PubChem AID 488874; type: functional
[8] = target: Alkaline phosphatase, placental type (Homo sapiens, UniProt P05187); assay: human placental alkaline phosphatase inhibition – biochemical, luminescence, confirmation (AID 1512); type: functional
[9] = target: Glyceraldehyde-3-phosphate dehydrogenase (Homo sapiens, UniProt P04406)
[10] = target: T2, Intestinal-type alkaline phosphatase; assay: human intestinal alkaline phosphatase activators, dose response, biochemical, luminescence, uHTS hits (AID 463120); type: functional
[11] = target: G-protein coupled receptor 55 (Homo sapiens, UniProt Q9Y2T6); assay: selective activators of receptor GPR55 – imaging, U2OS cells, beta-arrestin-GFP redistribution, primary screen (AID 1961); type: functional
[12] = loss of viability in HepG2 cells – cell-based, CellTiter-Glo, cherry-picked, cytotoxicity control for Shn3 inhibitor project, dose response (AID 624134); type: functional
[13] = reduction of Shn3 3'UTR-driven luciferase in osteoblasts – cell-based, Clone20 osteoblasts, firefly luciferase, cherry-picked, dose response (AID 624132); type: functional;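 also: firefly luciferase luminescence from reporter carrying the Shn3 3'UTR in osteoblasts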
[14] = system: HEK293; assay: NOD2 signaling inhibitors in MDP-stimulated cells, cell-based, uHTS, luminescence (AID 2001); type: functional; conditions: Homo sapiens
[15] = general cell-killing toxicity readout – plate reader, dry powder samples, cytotoxicity control for PAX8 inhibitor project, dose response (AID 743021); type: functional, cell-based
[16] = system: HEK293; assay: cells; type: functional, cell-based; conditions: Homo sapiens
[17] = target: Nucleotide-binding oligomerization domain-containing protein 2 (Homo sapiens, UniProt Q9HC29); assay: inhibition of NOD2-driven NF-kB reporter – cell-based, luminescence, uHTS, HEK293 (AID 1566); type: functional
[18] = system: HEK293; assay: cells; type: functional, cell-based; conditions: Homo sapiens; remark: listed apart in the source
[19] = system: HEK293; assay: cells; type: functional, cell-based; conditions: Homo sapiens; remark: listed apart in the source
[20] = non-specific 3'UTR reporter inhibition in Clone20-Shn3RL – cell-based, Renilla luciferase, cherry-picked, counter-screen for Shn3 inhibitor project, dose response (AID 624133); type: functional
[21] = target: Paired box protein Pax-8 (Homo sapiens, UniProt Q06710); assay: PAX8 transcriptional activity inhibition in RMG-I – RMG-I cells, luciferase, cherry-pick, dose response (AID 687027); type: functional, cell-based;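 also: luciferase reporter driven by Pax8 target thyroperoxidase promoter measured by SteadyGlo luminescence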
[22] = system: HEK293; assay: inhibition of NOD1-driven NF-kB reporter – cell-based, luminescence, uHTS, primary screen (AID 1578); type: functional; conditions: Homo sapiens

Chain of Alkaline phosphatase, placental type (P05187 whole entry): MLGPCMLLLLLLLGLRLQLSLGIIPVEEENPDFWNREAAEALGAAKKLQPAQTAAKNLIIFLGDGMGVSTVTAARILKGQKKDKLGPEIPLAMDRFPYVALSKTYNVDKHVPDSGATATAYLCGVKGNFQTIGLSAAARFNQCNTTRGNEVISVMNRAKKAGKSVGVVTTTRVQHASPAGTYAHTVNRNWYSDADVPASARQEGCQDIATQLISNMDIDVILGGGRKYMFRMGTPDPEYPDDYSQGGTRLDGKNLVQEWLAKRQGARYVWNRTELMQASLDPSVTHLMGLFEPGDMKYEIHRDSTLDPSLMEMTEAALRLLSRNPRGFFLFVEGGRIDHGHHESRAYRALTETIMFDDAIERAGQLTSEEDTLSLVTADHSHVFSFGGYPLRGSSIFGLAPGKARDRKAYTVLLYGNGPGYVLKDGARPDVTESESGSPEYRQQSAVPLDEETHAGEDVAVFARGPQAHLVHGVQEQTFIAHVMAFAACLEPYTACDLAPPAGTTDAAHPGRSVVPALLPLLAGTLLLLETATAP
T2 sequence (P09923 whole entry): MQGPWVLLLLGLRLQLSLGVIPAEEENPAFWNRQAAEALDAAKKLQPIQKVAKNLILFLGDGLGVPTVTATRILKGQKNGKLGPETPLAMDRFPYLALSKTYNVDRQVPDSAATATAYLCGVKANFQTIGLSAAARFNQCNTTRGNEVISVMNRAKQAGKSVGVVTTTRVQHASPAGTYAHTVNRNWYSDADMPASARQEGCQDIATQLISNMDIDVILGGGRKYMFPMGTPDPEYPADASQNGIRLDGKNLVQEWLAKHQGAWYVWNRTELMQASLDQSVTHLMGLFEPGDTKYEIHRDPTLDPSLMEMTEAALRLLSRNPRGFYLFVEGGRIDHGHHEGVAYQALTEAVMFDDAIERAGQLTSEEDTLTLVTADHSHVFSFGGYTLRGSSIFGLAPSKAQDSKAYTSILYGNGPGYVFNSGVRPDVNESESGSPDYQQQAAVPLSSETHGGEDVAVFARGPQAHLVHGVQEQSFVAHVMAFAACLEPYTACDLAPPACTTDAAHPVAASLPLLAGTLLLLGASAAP
Chain of Glyceraldehyde-3-phosphate dehydrogenase (P04406 whole entry): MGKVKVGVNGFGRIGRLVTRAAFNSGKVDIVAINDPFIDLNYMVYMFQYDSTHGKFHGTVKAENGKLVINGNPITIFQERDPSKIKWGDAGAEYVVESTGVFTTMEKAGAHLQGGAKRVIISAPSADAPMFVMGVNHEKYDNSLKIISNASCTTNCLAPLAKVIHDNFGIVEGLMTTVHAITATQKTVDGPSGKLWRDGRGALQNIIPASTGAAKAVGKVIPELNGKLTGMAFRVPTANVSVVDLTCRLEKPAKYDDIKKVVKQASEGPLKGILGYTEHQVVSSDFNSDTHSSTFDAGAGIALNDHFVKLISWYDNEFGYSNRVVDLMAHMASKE
Chain of G-protein coupled receptor 55 (Q9Y2T6 whole entry): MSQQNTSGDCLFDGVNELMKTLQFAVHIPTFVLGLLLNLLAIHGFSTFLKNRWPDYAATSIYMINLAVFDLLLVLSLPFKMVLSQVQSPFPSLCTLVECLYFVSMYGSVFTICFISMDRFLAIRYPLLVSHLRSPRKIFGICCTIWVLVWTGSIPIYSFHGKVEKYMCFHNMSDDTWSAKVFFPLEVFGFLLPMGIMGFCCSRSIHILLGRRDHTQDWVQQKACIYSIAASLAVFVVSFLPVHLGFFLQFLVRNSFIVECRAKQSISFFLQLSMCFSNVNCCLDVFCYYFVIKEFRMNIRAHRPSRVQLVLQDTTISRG
Chain of Paired box protein Pax-8 (Q06710 whole entry): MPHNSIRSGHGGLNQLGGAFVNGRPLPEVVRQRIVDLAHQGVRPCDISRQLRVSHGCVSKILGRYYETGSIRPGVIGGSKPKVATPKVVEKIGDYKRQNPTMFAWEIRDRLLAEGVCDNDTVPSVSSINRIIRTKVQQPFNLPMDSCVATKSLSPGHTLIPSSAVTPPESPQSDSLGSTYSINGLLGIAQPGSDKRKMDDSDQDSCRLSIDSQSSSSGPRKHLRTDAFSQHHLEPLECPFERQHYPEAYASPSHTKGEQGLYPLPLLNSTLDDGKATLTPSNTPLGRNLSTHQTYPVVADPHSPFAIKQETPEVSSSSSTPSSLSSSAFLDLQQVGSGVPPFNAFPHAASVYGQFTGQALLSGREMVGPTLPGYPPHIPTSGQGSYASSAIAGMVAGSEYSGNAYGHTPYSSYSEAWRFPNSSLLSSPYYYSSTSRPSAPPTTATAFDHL
Chain of Nucleotide-binding oligomerization domain-containing protein 2 (Q9HC29 whole entry, the tested form may be a part): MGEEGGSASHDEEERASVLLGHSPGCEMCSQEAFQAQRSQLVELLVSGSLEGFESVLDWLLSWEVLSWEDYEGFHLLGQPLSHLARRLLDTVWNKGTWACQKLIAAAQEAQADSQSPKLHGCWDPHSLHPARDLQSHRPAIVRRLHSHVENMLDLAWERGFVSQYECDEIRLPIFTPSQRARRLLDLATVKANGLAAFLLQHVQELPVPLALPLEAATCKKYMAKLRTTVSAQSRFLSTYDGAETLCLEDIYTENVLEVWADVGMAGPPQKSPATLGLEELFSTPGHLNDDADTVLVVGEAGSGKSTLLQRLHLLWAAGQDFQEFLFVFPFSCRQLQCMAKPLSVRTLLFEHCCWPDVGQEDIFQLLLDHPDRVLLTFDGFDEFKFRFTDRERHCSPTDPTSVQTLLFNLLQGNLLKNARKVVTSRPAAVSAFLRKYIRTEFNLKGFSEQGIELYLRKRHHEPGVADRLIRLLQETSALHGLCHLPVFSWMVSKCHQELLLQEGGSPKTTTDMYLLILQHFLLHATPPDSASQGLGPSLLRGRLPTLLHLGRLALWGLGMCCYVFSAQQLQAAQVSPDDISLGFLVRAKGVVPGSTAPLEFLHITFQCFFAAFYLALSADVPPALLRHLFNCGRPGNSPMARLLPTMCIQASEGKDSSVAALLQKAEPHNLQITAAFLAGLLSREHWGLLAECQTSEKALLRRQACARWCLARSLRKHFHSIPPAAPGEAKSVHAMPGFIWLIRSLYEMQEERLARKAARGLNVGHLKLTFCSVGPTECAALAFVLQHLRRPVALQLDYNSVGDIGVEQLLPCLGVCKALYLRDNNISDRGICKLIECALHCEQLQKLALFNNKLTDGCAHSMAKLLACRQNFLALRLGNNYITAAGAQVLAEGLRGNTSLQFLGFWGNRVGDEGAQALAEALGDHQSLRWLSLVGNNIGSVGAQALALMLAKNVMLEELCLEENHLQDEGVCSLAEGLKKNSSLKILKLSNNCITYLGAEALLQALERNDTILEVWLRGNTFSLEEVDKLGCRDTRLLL
Chain of Eukaryotic translation initiation factor 4E (P63073 whole entry): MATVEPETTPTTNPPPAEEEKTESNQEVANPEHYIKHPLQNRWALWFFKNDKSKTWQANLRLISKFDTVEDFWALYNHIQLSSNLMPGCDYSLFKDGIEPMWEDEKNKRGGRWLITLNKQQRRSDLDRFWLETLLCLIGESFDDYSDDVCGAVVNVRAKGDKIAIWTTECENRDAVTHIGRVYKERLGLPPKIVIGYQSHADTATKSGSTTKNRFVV
Chain of Intestinal-type alkaline phosphatase (Mus musculus, UniProt P24822) (P24822 whole entry): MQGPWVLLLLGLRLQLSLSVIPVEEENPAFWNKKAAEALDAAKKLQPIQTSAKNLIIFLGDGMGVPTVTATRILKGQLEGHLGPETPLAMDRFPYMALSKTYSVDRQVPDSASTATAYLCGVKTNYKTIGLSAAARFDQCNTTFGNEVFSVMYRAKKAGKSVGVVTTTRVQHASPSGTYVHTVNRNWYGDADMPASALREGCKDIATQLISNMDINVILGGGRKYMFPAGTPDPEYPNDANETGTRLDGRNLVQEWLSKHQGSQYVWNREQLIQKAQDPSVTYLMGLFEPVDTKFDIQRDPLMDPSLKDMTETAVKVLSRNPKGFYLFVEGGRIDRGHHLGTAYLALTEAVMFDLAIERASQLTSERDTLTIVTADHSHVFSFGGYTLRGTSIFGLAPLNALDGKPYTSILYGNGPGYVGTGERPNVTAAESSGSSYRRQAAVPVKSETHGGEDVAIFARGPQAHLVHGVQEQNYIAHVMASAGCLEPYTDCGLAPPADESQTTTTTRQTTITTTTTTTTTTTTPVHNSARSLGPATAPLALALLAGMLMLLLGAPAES

IC50 [1]: 9.36 µM (not active)
EC50 [2]: > 79.4 µM (not active)
EC50 [3]: > 79.4 µM (not active)
EC50 [4]: > 79.4 µM (not active)
IC50 [5]: > 64 µM (inactive)
SMILES: NS(=O)(=O)c1ccc(NC(=S)NCc2ccc(Cl)cc2)cc1

EC50 [6]: 21 µM (active)
IC50 [7]: > 100 µM (inactive)
IC50 [8]: > 100 µM (inactive)
IC50 [9]: > 10 µM (inconclusive)
EC50 [10]: 10.7 µM (active)
SMILES: Cc1cc(OCC(=O)Nc2nc[nH]n2)ccc1Cl

SMILES: CCOc1ccc(C(=O)C(CCC(CN(C)C)C(=O)c2ccc(OCC)cc2)CN(C)C)cc1 (configuration not stated)
EC50 [11]: > 32 µM (inactive)
AC50 [12]: 6.77 µM (active)
AC50 [13]: 1.61 µM (active)
IC50 [14]: 2.48 µM (active)
AC50 [15]: 36.7 µM (active)
IC50 [16]: 6.72 µM (active)
EC50 [17]: > 20 µM (inactive)
IC50 [18]: > 20 µM (inactive)
IC50 [19]: 1.53 µM (active)
AC50 [20]: 7.72 µM (active)
AC50 [21]: 4.27 µM (active)
EC50 [22]: 15.9 µM (active)
